From ChEMBL document CHEMBL1134595, “Exploration of novel aryl binding sites of farnesyltransferase using molecular modeling and benzophenone-based farnesyltransferase inhibitors” (J Med Chem, 2001)

target: T1, Farnesyltransferase (Saccharomyces cerevisiae S288c, UniProt P22007+P29703); assay: Inhibitory activity against yeast farnesyltransferase; type: protein-complex assay
T1 sequence (P29703 whole entry): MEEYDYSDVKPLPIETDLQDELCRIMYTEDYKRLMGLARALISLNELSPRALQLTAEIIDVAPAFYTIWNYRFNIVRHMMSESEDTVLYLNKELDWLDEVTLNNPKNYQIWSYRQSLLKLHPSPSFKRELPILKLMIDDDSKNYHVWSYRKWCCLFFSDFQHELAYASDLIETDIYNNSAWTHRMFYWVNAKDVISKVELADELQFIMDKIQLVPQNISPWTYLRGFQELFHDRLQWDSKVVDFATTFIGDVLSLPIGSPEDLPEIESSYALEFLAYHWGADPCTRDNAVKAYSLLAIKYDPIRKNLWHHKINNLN
T1 sequence (P22007 whole entry): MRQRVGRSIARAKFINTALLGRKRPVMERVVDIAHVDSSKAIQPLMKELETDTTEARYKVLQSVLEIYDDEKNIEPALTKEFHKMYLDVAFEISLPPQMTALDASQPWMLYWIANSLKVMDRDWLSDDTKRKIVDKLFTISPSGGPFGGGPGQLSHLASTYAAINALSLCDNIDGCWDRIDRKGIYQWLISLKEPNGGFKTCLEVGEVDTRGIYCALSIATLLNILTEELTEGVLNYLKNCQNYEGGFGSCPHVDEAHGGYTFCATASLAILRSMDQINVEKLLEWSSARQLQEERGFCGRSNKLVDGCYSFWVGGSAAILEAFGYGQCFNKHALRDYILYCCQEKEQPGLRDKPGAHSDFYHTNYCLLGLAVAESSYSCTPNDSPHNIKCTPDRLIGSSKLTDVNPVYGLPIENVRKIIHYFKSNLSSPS

SMILES	IC50
Cc1ccc(CC(=O)Nc2ccc(NC(=O)CCCCCc3ccccc3)cc2C(=O)c2ccccc2)cc1	1100 nM
Cc1ccc(CC(=O)Nc2ccc(NC(=O)Cc3ccccc3)cc2C(=O)c2ccccc2)cc1	2000 nM
Cc1ccc(CC(=O)Nc2ccc(NC(=O)c3ccccc3)cc2C(=O)c2ccccc2)cc1	6000 nM
Cc1ccc(CC(=O)Nc2ccc(NC(=O)/C=C/c3ccc(-c4ccc(Br)cc4)o3)cc2C(=O)c2ccccc2)cc1	925 nM
Cc1ccc(CC(=O)Nc2ccc(NC(=O)/C=C/c3ccc(-c4ccc(Cl)cc4)o3)cc2C(=O)c2ccccc2)cc1	6300 nM
Cc1ccc(CC(=O)Nc2ccc(NC(=O)CCc3ccccc3)cc2C(=O)c2ccccc2)cc1	2000 nM

Now those with a lower IC50, led by results:

IC50	SMILES
530 nM	Cc1ccc(CC(=O)Nc2ccc(NC(=O)CCCc3ccccc3)cc2C(=O)c2ccccc2)cc1
455 nM	Cc1ccc(CC(=O)Nc2ccc(NC(=O)/C=C/c3csc(-c4ccc([N+](=O)[O-])cc4)n3)cc2C(=O)c2ccccc2)cc1
390 nM	Cc1ccc(CC(=O)Nc2ccc(NC(=O)CCCCc3ccccc3)cc2C(=O)c2ccccc2)cc1
12 nM	CCC(C)[C@@H](CN(CC(=O)N[C@@H](CCSC)C(=O)O)Cc1cccc2ccccc12)NC(=O)CC1CN(Cc2ccc(C#N)cc2)C=N1 (some centres undefined)
6 nM	CSCC[C@H](NC(=O)c1ccc(COCc2ccc(-c3ccccc3)o2)cc1-c1ccccc1)C(=O)O
5.4 nM	CCC(C)[C@@H](CN(CC(=O)N[C@@H](CCSC)C(=O)O)Cc1cccc2ccccc12)NC(=O)CSCc1ccc(C#N)cc1 (some centres undefined)
0.4 nM	CSCC[C@H](NC(=O)c1ccc(COc2cccnc2)cc1-c1ccccc1C)C(=O)O
0.1 nM	CSCC[C@H](NC(=O)c1ccc(CN(Cc2ccccc2)c2cccnc2)cc1-c1ccccc1C)C(=O)O
